# Biological target: C-C chemokine receptor type 5 (Homo sapiens, UniProt P51681)
# Test: Inhibitory activity against human CCR5 chemokine receptor (CCR5) expressed in CHO cells
# Assay type: cell-based
# Chain of C-C chemokine receptor type 5 (P51681 whole entry): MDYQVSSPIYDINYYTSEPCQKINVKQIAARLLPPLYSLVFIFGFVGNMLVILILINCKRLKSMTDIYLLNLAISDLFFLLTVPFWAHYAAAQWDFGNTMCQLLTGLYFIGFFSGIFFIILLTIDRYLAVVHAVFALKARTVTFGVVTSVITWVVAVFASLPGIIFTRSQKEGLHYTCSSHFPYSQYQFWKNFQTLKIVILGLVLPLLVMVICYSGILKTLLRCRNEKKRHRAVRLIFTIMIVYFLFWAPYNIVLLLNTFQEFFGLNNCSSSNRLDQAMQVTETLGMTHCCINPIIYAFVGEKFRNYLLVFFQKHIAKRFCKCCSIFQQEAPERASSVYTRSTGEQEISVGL
row,Structure (SMILES),Ki [µM]
1,COC1[C@@H](O)C(OC2[C@@H](O)[C@H](O[C@H]3[C@H](O)[C@@H](O)[C@H](O[C@H]4[C@H](O[C@H]5CC[C@]6(C)C7=C[C@H](O)C89C(=O)O[C@@](C)(CCCC(C)C)C8CC[C@@]9(C)C7CCC6C5(C)C)OC[C@@H](O[C@@H]5O[C@H](CO)[C@@H](O)[C@H](OC6O[C@H](CO)[C@@H](O)[C@H](OC)[C@H]6O)[C@H]5O)[C@@H]4O)O[C@@H]3C)O[C@H](CO)[C@H]2O)O[C@H](CO)[C@H]1O (some centres not stated),5.1
2,C[C@H]1O[C@@H](O[C@H]2[C@H](O[C@H]3CC[C@]4(C)C5=C[C@H](O)C67C(=O)O[C@@](C)(C8CCC(C)(C)O8)[C@@]6(O)CC[C@@]7(C)C5CCC4C3(C)C)OC[C@@H](O[C@@H]3O[C@H](CO)[C@@H](O)[C@H](O)[C@H]3O)[C@@H]2O)[C@H](O)[C@@H](O)[C@@H]1O (some centres not stated),30

# Source: ChEMBL document CHEMBL1134953, “Two selective novel triterpene glycosides from sea cucumber, Telenata Ananas: inhibitors of chemokine receptor-5” (Bioorg Med Chem Lett, 2002)
